Data on 16 compounds can be found in patent US4594356A, “Method for inducing mydriasis in animals” (Key Pharmaceuticals, Inc., priority 1985, dated 1986).

Read-outs that look alike come from different tables or passages of the source.

Data set [1] in a line: Enzymatic hydrolysis in aqueous humor at 37° C. The class given is in vitro ADME, New Zealand albino rabbits. Here is the method:
(§1) The stability of the ethyl succinyl derivative in isotonic saline buffer was determined in order to contrast the rates of hydrolysis of a chemical system with those of the ocular enzymatic systems. Ocular tissues were obtained from New Zealand albino rabbits. Homogenates were prepared in isotonic saline with a potassium phosphate buffer pH 7.4. High pressure liquid chromatography systems with spectrophotometric (254 nm) and electrochemical detection were used for determination.

Data set [2] in a line: Enzymatic hydrolysis in corneal tissue homogenate at 37° C. The class given is in vitro ADME, New Zealand albino rabbits. Particulars: Corneal tissue 10% homogenate, pH 7.4, 37° C. Here is the method: as §1
A short description of data set [3]: Enzymatic hydrolysis in human plasma at 37° C. The data set is classed as in vitro ADME.
The nature of data set [4]: Enzymatic hydrolysis in iris/ciliary body homogenate at 37° C. The class given is in vitro ADME, New Zealand albino rabbits. The settings on record: Iris/ciliary body 10% homogenate, pH 7.4, 37° C. On the procedure:
as §1

The subject of data set [5] is pupil. The experiment in a line: Mydriatic study: pupil diameter difference between drug-treated and saline-treated eye in normal albino rabbits. Particulars: drug eye vs saline eye difference. The data set is classed as in vivo, New Zealand male albino rabbits. On the procedure: Normal New Zealand male albino rabbits weighing from 2 to 3 kg. were used in the studies. The animals were placed in fiberglass restraining cages at least a half hour before the experiment and remained there throughout the test. The cages were located in a light and temperature controlled room. Pupil diameter was measured with a monostat vernier caliper held at a constant distance from observer and animal eyes. Drug solutions were formulated by dissolving the test agent in 0.9% saline solutions.
In the test procedure, a standard dose volume of 0.05 ml of the drug solution was applied to one eye and 0.9% saline was applied to the other eye of the same animal. The differences in the same animals between pupil diameter in millimeters of the eye with drug applied against the other eye with only saline instilled were recorded.
The pupillary dose response results are shown below in Table I.

Data set [6] is described as follows: Stability in isotonic saline buffer pH 7.4 at 37° C. The class given is physicochemical. The settings on record: Isotonic saline pH 7.4, 37° C. On the procedure:
as §1

The subject of data set [7] is intraocular pressure. Particulars: cited from earlier work; for ocular tension (intraocular pressure) reduction: clinical study.
For a further data set, the system named is glaucoma. Particulars: cited from earlier work.
Data set [8] has as its system intraocular pressure. Particulars: cited from earlier work.
Data set [9] in a line: Half-life of adrenalone diesters (R methyl, R1 = R2). The data set is classed as in vitro ADME. Particulars: R is methyl, medium not stated, read-out: half-life (t1/2). The text has this:
Further, it should be noted that R is preferrably methyl.

For data set [10], the system named is pupil. Particulars: 2% solution; cited from earlier work.
Data set [11] in a line: Ocular distribution after topical administration of the diester. The data set is classed as in vivo. The settings on record: after topical administration of compound of Formula I (formed by hydrolysis / reduction-hydrolysis). The text has this: Thus, topical adminstration of a compound of Formula I to the eye of an animal effectively induces pupil diameter enlargement and lowers intraocular pressure for a limited duration as a novel type of site-specific delivery system for epinephrine without the concomitant appearance of any significant undesirable side-effects associated with the prior art.

The subject of data set [12] is eye. Particulars: cited from earlier work.
Data set [13] concerns eye. Particulars: cited from earlier work; for ocular sympathomimetic activity: in vivo; for potency relative to dipivalyl epinephrine: on a molar basis.
Data set [14] concerns eye. Particulars: in vivo; cited from earlier work.
The subject of data set [15] is eye. The settings on record: topical, prolonged usage; cited from earlier work.

As to `CCOC(=O)CCC(=O)Oc1ccc(C(=O)CNC)cc1OC(=O)CCC(=O)OCC` [0,0-di(ethylsuccinyl) adrenalone hydroperchlorate], the “k (hydrolysis rate constant)” value is recorded as 5.09 min^-1 × 10^-1 in [1]; 3.08 min^-1 × 10^-1 in data set [2]; 6.68 min^-1 × 10^-1 in data set [3]; 7.91 min^-1 × 10^-1 in [4]; 0.04 min^-1 × 10^-1 in [6]. Further, the half-life in data set [1] (rabbit) is 1.36 min; in [2] (rabbit), 2.25 min; in [3] it was 1.01 min; in [4] (rabbit) it was 0.88 min; in data set [6] (isotonic saline buffer) it was 173 min. For the same compound, the “Pupil diameter (X ± S.E.)” value in the data set on pupil [5] (1.0×10^-2 M, 10 minutes) worked out at 0.34 mm; in the data set on pupil [5] (1.0×10^-2 M, 20 minutes) it was 0.43 mm; in the data set with pupil [5] (1.0×10^-2 M, 30 minutes) it was 1.27 mm; in the data set on pupil [5] (1.0×10^-2 M, 60 minutes) it was 1.42 mm; with pupil [5] (1.0×10^-2 M, 120 minutes), 0.18 mm; with pupil [5] (1.0×10^-2 M, 180 minutes), 0.37 mm. In addition, the “Pupil diameter (X ± S.E.)” value with pupil [5] (1.5×10^-2 M, 10 minutes) stood at 0.33 mm; in the data set on pupil [5] (1.5×10^-2 M, 20 minutes) it was 0.80 mm; in the data set with pupil [5] (1.5×10^-2 M, 30 minutes), 1.10 mm; in the data set on pupil [5] (1.5×10^-2 M, 60 minutes), 2.13 mm; with pupil [5] (1.5×10^-2 M, 120 minutes), 0.34 mm; in the data set with pupil [5] (1.5×10^-2 M, 180 minutes), 0.16 mm. For the same compound, the “Pupil diameter (X ± S.E.)” value in the data set with pupil [5] (2.0×10^-2 M, 10 minutes) turned out to be 0.69 mm; in the data set on pupil [5] (2.0×10^-2 M, 20 minutes), 1.12 mm; with pupil [5] (2.0×10^-2 M, 30 minutes), 1.64 mm; in the data set on pupil [5] (2.0×10^-2 M, 60 minutes), 3.11 mm; with pupil [5] (2.0×10^-2 M, 120 minutes), 0.79 mm; with pupil [5] (2.0×10^-2 M, 180 minutes) it was 0.31 mm. Moreover, the “Pupil diameter (X ± S.E.)” value in the data set with pupil [5] (2.4×10^-3 M, 10 minutes) is recorded as 0.15 mm; in the data set on pupil [5] (2.4×10^-3 M, 20 minutes) it was 0.18 mm; with pupil [5] (2.4×10^-3 M, 30 minutes) it was 0.20 mm; with pupil [5] (2.4×10^-3 M, 60 minutes), 0.30 mm; with pupil [5] (2.4×10^-3 M, 120 minutes), 0.08 mm; in the data set on pupil [5] (2.4×10^-3 M, 180 minutes) it was 0.11 mm. The “Pupil diameter (X ± S.E.)” value with pupil [5] (2.5×10^-2 M, 10 minutes) is listed as 0.44 mm; with pupil [5] (2.5×10^-2 M, 20 minutes), 1.99 mm; with pupil [5] (2.5×10^-2 M, 30 minutes) it was 2.90 mm; in the data set on pupil [5] (2.5×10^-2 M, 60 minutes), 3.29 mm; with pupil [5] (2.5×10^-2 M, 120 minutes), 1.66 mm; in the data set on pupil [5] (2.5×10^-2 M, 180 minutes), 0.22 mm. Also, the “Pupil diameter (X ± S.E.)” value is 0.20 mm in the data set on pupil [5] (5.0×10^-3 M, 10 minutes); 0.56 mm with pupil [5] (5.0×10^-3 M, 20 minutes); 0.82 mm in the data set with pupil [5] (5.0×10^-3 M, 30 minutes); 0.78 mm with pupil [5] (5.0×10^-3 M, 60 minutes); 0.46 mm with pupil [5] (5.0×10^-3 M, 120 minutes); 0.58 mm with pupil [5] (5.0×10^-3 M, 180 minutes).

`CNC[C@H](O)c1ccc(O)c(O)c1` [1-adrenaline]: the “ocular tension (intraocular pressure) reduction” value in the data set on intraocular pressure [7] was “lowered ocular tension”.

In the case of `CC(C)NCC(=O)c1ccc(O)c(O)c1` [3,4-dihydroxy-2-(isopropylamino) acetophenone], in the data set on glaucoma (in vivo), the “mydriatic activity (side-effect)” value is given as “toxic, harmful or deleterious side-effect” and the treatment of glaucoma entry was “successful treatment of glaucoma”. Moreover, the “concentration needed to achieve the desired result” value in the data set on glaucoma (treatment of glaucoma) is given as 3%.

`CC(C)NCC(O)c1ccc(O)c(O)c1` (stereo not drawn) [Isoproterenol]: in the data set with intraocular pressure [8] (in vivo), the intraocular pressure reduction result is on record as “satisfactorily reduced intraocular pressure” and the mydriasis result is “causing mydriasis”. Besides, the serious side-effects result in the data set on intraocular pressure [8] (treatment of glaucoma) was “taachycardia, weakness, and palpatations were observed”.

In the case of `CCOC(=O)CCC(=O)Oc1ccc(C(=O)CNC)cc1OC(=O)CCC(=O)OCC` [R1 = R2 (1)], the half-life in [9] came to 1.01 min.

Take `CCCC(=O)Oc1ccc(C(=O)CNC)cc1OC(=O)CCC` [R1 = R2 (2)]: the half-life in [9] stood at 2.13 min.

Turning to `CCCCCC(=O)Oc1ccc(C(=O)CNC)cc1OC(=O)CCCCC` [R1 = R2 (3)], the half-life in [9] worked out at 2.96 min.

For the compound `CCN(CC)C(=O)CCC(=O)Oc1ccc(C(=O)CNC)cc1OC(=O)CCC(=O)N(CC)CC` [R1 = R2 (4)], the half-life in [9] amounted to 8.55 min.

As to `CNCC(=O)c1ccc(OC(=O)C=Cc2ccccc2)c(OC(=O)C=Cc2ccccc2)c1` [R1 = R2 (5)], in data set [9], the half-life turned out to be 10.1 min.

For `CNCC(=O)c1ccc(OC(=O)CC(C)C)c(OC(=O)CC(C)C)c1` [R1 = R2 (6)], in data set [9], the half-life came to 19.2 min.

For `CNCC(=O)c1ccc(OC(=O)C(C)(C)C)c(OC(=O)C(C)(C)C)c1` [R1 = R2 (7)], in [9], the half-life was 57.8 min.

Regarding `CNCC(=O)c1ccc(O)c(O)c1` [adrenalone], the mydriatic activity entry in the data set on pupil [10] is “only a minimal level of mydriatic activity”. Also, the ocular distribution result in data set [11] is “found in every compartment of the eye”. The mydriasis result with eye [12] (high concentrations) is “will not produce mydriasis”. Besides, the “reduction in the eye to adrenalin” value in the data set with eye [12] (topical administration) was “not reduced in the eye to the active adrenalin”. For the same compound, in the data set with intraocular pressure [7] (2% solution, patients suffering from glaucoma), the intraocular pressure reduction result was “did not cause any reduction in the intraocular pressure”. In addition, in the data set with intraocular pressure [7], the “ocular tension (intraocular pressure) reduction” value is “do not”.

As for `CNC[C@@H](O)c1ccc(O)c(O)c1` [d-adrenalin], the “ocular tension (intraocular pressure) reduction” value in the data set with intraocular pressure [7] was “do not”.

As for `CNCC(=O)c1ccc(OC(=O)CC(C)C)c(OC(=O)CC(C)C)c1` [diisovaleryl], in the data set on eye [13], the ocular sympathomimetic activity entry is reported as “High ocular sympathomimetic activity” and the “potency relative to dipivalyl epinephrine” value is “more potent on a molar basis than the successful prodrug of epinephrine, dipivalyl epinephrine”.

With `CNCC(=O)c1ccc(OC(=O)C(C)(C)C)c(OC(=O)C(C)(C)C)c1` [dipivalyl], the “recovery of normal vision” value in the data set on eye [14] was “did not achieve faster recovery of normal vision”. Besides, in the data set with eye [13], the ocular sympathomimetic activity result is “High ocular sympathomimetic activity” and the “potency relative to dipivalyl epinephrine” value is listed as “more potent on a molar basis than the successful prodrug of epinephrine, dipivalyl epinephrine”.

Take `CNC[C@H](O)c1ccc(O)c(O)c1` [epinephrine]: the ocular distribution entry in data set [11] is reported as “found only in the uveal (iris-ciliary body) tissues”. Also, in the data set on eye [15], the “mydriasis (side effect)” value is “frequently causes mydriasis” and the “retinal maculopathy (side effect)” value is “sometimes retinal maculopathy”.
